Measured values as given in patent US6410723B1, “VDUP1 promoter and methods of use thereof” (priority 2000, dated 2002).

How the values were obtained:
thioredoxin (TRX) = details: HL-60 cells treated with vitamin D3; cited from earlier work
VDUP1 promoter = experiment: Secreted alkaline phosphatase reporter assay, COS cells transiently transfected with VDUP1 promoter constructs, treated with Vitamin D3; format: cell-based, monkey; details: 200 nM Vitamin D3, all constructs tested, AP reporter
Experimental: (§1) FIG. 5 is a graph showing secreted alkaline phosphatase (SEAP) activity upon transient transfection of COS cells of various VDUP1 promoter constructs operably linked to an alkaline phosphatase encoding nucleotide sequence, treated or untreated with 200 nM Vitamin D3.
(§2) Four deletion constructs were generated corresponding to 5′ end lengths of 1448bp (SEQ ID NO:1), 1002bp (SEQ ID NO:4), 597bp (SEQ ID NO:3), and 452bp (SEQ ID NO:2) as shown in FIG. 1. In the 452bp (SEQ ID NO:2) construct, the two Sp1 elements are deleted. Each fragment was generated by PCR from the 3.0 kb EcoRI-BamHI subclone, and introduced upstream of the secreted alkaline phosphatase (AP) reporter nucleic acid sequence. Representative clones of each were verified by DNA sequencing. The VDUP1 constructs were then transfected into COS cells and screened for expression in comparison to an SV40 immediate early promoter driven AP construct.

VDUP1 gene = details: human HL-60 cells; cited from earlier work
[1] = test system: SV40 immediate early promoter; experiment: Secreted alkaline phosphatase reporter assay, COS cells transfected with SV40 promoter control construct, treated with vitamin D3; format: cell-based; details: addition of vitamin D3 (200 nM), AP reporter
Experimental: as §1, §2

C=C1/C(=C\C=C2/CCC[C@]3(C)[C@@H]([C@H](C)CCCC(C)(C)O)CC[C@@H]23)C[C@@H](O)C[C@@H]1O [Vitamin D3, 1,25-dihydroxyvitamin D3]
expression of TRX (thioredoxin (TRX)): significant decrease | enhancement of VDUP1 expression (VDUP1 promoter): 25% | induction of VDUP1 (VDUP1 gene): strongly induced | induction of SV40 control [1]: not induced

C[C@@H]1C[C@@H]([C@H](O)CC2CC(=O)NC(=O)C2)C(=O)[C@@H](C)C1 [cyclohexamide]
induction of VDUP1 (VDUP1 gene): several fold
